Test results from PubChem BioAssay AID602353 (The Scripps Research Institute Molecular Screening Center, 2012).
Activity calls are given as the source filed them. How the calls were made is not given here.

How the values were obtained:
Assay in all cases: in vivo serine hydrolase selectivity profiling, late-stage follow-up, in vivo study for DAGLb inhibitor project, ABPP MudPIT, LC-MS, mouse (AID 602353)
Pafah1b3 = conditions: mouse tissue ABPP MudPIT, FP-probe spectral counts, stronger effect = lower value
[1] = biological target: Palmitoyl-protein thioesterase ABHD10, mitochondrial (Mus musculus) (UniProt Q6PE15); conditions: mouse tissue ABPP MudPIT, FP-probe spectral counts, stronger effect = lower value
Lypla2 = conditions: mouse tissue ABPP MudPIT, FP-probe spectral counts, stronger effect = lower value
Pafah1b2 = conditions: mouse tissue ABPP MudPIT, FP-probe spectral counts, stronger effect = lower value
Dpp4 = conditions: mouse tissue ABPP MudPIT, FP-probe spectral counts, stronger effect = lower value
Parl = conditions: mouse tissue ABPP MudPIT, FP-probe spectral counts, stronger effect = lower value
Lypla1 = conditions: mouse tissue ABPP MudPIT, FP-probe spectral counts, vehicle vs compound significance, stronger effect = lower value
[2] = biological target: Platelet-activating factor acetylhydrolase 2, cytoplasmic (Mus musculus) (UniProt Q8VDG7); conditions: mouse tissue ABPP MudPIT, FP-probe spectral counts; Pafah2; stronger effect = lower value
Daglb = conditions: mouse tissue ABPP MudPIT, FP-probe spectral counts, vehicle vs compound significance, stronger effect = lower value
Elane = conditions: mouse tissue ABPP MudPIT, FP-probe spectral counts, stronger effect = lower value
Pnpla7 = conditions: mouse tissue ABPP MudPIT, FP-probe spectral counts, stronger effect = lower value
Fasn = conditions: mouse tissue ABPP MudPIT, FP-probe spectral counts, stronger effect = lower value
Abhd10 = conditions: mouse tissue ABPP MudPIT, FP-probe spectral counts, vehicle vs compound significance, stronger effect = lower value
Acot1 = conditions: mouse tissue ABPP MudPIT, FP-probe spectral counts, stronger effect = lower value
Kiaa1363 = conditions: mouse tissue ABPP MudPIT, FP-probe spectral counts, stronger effect = lower value
Pnpla6 = conditions: mouse tissue ABPP MudPIT, FP-probe spectral counts, stronger effect = lower value
Magl = conditions: mouse tissue ABPP MudPIT, FP-probe spectral counts, stronger effect = lower value
Abhd6 = conditions: mouse tissue ABPP MudPIT, FP-probe spectral counts, vehicle vs compound significance, stronger effect = lower value
Pla2g7 = conditions: mouse tissue ABPP MudPIT, FP-probe spectral counts, vehicle vs compound significance, stronger effect = lower value
[3] = biological target: Diacylglycerol lipase-beta (Mus musculus) (UniProt Q91WC9); conditions: mouse tissue ABPP MudPIT, FP-probe spectral counts; Daglb; stronger effect = lower value
Abhd12 = conditions: mouse tissue ABPP MudPIT, FP-probe spectral counts, stronger effect = lower value
Pla2g15 = conditions: mouse tissue ABPP MudPIT, FP-probe spectral counts, stronger effect = lower value
Ctsg = conditions: mouse tissue ABPP MudPIT, FP-probe spectral counts, stronger effect = lower value
Prcp = conditions: mouse tissue ABPP MudPIT, FP-probe spectral counts, stronger effect = lower value
Aoah = conditions: mouse tissue ABPP MudPIT, FP-probe spectral counts, stronger effect = lower value
Ctsa = conditions: mouse tissue ABPP MudPIT, FP-probe spectral counts, stronger effect = lower value
Dpp7 = conditions: mouse tissue ABPP MudPIT, FP-probe spectral counts, stronger effect = lower value
Dpp9 = conditions: mouse tissue ABPP MudPIT, FP-probe spectral counts, stronger effect = lower value
Apeh = conditions: mouse tissue ABPP MudPIT, FP-probe spectral counts, stronger effect = lower value
Fam108b = conditions: mouse tissue ABPP MudPIT, FP-probe spectral counts, stronger effect = lower value
Acot2 = conditions: mouse tissue ABPP MudPIT, FP-probe spectral counts, stronger effect = lower value
Pafah2 = conditions: mouse tissue ABPP MudPIT, FP-probe spectral counts, vehicle vs compound significance, stronger effect = lower value
[4] = biological target: Acyl-protein thioesterase 1 (Mus musculus) (UniProt P97823); conditions: mouse tissue ABPP MudPIT, FP-probe spectral counts; Lypla1; stronger effect = lower value
Lipe = conditions: mouse tissue ABPP MudPIT, FP-probe spectral counts, stronger effect = lower value
Lpl = conditions: mouse tissue ABPP MudPIT, FP-probe spectral counts, stronger effect = lower value
Abhd11 = conditions: mouse tissue ABPP MudPIT, FP-probe spectral counts, stronger effect = lower value
Iah1 = conditions: mouse tissue ABPP MudPIT, FP-probe spectral counts, stronger effect = lower value
[5] = biological target: Monoacylglycerol lipase ABHD6 (Mus musculus) (UniProt Q8R2Y0); conditions: mouse tissue ABPP MudPIT, FP-probe spectral counts, stronger effect = lower value
[6] = biological target: Platelet-activating factor acetylhydrolase (Mus musculus) (UniProt Q60963); conditions: mouse tissue ABPP MudPIT, FP-probe spectral counts; Pla2g7; stronger effect = lower value
Dpp8 = conditions: mouse tissue ABPP MudPIT, FP-probe spectral counts, stronger effect = lower value
Pnpla8 = conditions: mouse tissue ABPP MudPIT, FP-probe spectral counts, stronger effect = lower value
[7] = vehicle vs compound significance

Chain of Acyl-protein thioesterase 1 (Mus musculus) (P97823 whole entry, looked up): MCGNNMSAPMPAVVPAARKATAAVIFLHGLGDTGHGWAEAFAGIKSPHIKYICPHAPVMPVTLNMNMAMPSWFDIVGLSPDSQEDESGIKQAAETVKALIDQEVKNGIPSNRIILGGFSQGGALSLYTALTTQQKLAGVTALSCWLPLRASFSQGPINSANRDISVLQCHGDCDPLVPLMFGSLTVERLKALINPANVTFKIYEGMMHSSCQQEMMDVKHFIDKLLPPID
Chain of Platelet-activating factor acetylhydrolase 2, cytoplasmic (Mus musculus) (Q8VDG7 whole entry, looked up): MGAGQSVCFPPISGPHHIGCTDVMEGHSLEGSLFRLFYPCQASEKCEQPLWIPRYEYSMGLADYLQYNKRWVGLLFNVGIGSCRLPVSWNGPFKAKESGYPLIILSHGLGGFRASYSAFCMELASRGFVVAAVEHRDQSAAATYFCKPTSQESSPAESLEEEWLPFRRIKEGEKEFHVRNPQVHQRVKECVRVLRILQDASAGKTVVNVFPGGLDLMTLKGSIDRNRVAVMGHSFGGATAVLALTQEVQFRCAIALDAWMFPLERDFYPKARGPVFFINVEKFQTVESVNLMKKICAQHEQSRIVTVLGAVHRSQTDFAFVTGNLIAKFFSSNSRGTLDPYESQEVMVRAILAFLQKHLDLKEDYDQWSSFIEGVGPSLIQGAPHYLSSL
Chain of Monoacylglycerol lipase ABHD6 (Mus musculus) (Q8R2Y0 whole entry, looked up): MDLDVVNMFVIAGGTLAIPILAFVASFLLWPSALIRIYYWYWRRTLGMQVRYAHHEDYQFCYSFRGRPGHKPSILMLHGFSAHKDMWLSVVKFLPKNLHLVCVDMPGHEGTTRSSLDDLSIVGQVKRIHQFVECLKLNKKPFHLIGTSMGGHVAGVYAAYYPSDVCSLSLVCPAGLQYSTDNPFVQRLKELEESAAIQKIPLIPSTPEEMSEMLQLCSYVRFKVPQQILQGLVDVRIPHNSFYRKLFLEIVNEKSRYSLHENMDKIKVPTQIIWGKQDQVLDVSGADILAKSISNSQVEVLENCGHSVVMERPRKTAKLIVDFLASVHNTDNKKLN
Chain of Platelet-activating factor acetylhydrolase (Mus musculus) (Q60963 whole entry, looked up): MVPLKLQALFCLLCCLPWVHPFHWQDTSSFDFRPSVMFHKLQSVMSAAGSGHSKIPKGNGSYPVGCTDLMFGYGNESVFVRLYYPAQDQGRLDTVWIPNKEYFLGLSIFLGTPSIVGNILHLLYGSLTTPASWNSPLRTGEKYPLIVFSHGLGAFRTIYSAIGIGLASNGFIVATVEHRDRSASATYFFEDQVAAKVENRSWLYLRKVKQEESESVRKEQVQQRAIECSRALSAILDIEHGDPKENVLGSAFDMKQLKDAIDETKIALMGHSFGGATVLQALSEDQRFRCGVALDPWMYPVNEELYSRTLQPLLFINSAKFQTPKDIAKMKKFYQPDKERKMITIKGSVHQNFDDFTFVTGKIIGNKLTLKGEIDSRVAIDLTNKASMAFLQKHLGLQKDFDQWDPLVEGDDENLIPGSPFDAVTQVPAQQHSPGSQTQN
Chain of Palmitoyl-protein thioesterase ABHD10, mitochondrial (Mus musculus) (Q6PE15 whole entry, looked up): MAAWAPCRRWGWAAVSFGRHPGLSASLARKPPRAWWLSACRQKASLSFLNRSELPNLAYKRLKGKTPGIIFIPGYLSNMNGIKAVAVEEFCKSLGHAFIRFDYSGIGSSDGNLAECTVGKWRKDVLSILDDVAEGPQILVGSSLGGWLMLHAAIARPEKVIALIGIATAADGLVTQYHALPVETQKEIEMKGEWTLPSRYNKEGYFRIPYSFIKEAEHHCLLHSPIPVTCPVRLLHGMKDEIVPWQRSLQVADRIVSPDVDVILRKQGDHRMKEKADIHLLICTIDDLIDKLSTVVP
Chain of Diacylglycerol lipase-beta (Mus musculus) (Q91WC9 whole entry, looked up): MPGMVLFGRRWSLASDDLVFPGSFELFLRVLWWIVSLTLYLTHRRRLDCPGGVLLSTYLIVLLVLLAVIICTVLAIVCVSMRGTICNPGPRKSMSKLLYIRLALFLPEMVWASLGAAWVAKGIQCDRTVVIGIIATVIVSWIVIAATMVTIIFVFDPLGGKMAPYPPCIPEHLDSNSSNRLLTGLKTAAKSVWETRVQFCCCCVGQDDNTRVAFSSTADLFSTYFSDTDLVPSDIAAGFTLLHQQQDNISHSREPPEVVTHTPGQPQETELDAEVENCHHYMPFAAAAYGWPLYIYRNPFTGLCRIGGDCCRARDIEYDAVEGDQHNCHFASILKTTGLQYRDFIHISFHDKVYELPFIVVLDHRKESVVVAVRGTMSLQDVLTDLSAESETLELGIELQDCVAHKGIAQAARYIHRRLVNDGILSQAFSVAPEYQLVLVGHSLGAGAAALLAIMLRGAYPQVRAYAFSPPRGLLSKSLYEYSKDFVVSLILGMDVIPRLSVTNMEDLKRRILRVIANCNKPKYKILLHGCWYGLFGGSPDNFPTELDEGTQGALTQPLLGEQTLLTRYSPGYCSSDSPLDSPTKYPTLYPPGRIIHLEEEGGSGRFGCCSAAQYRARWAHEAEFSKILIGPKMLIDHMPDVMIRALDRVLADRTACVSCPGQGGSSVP

spectral counts, test compound (Pafah1b3): 35 (inactive)
P value (Pafah1b3; [7]): 0.532
spectral counts, test compound [1]: 22.3 (inactive)
spectral counts, test compound (Lypla2): 118 (inactive)
P value (Lypla2; [7]): 0.278
spectral counts, test compound (Pafah1b2): 66 (inactive)
P value (Pafah1b2; [7]): 0.317
spectral counts, test compound (Dpp4): 146 (inactive)
P value (Dpp4; [7]): 0.754
spectral counts, test compound (Parl): 20 (inactive)
P value (Parl; [7]): 0.382
P value (Lypla1): 0.819
spectral counts, test compound [2]: 33.7 (inactive)
P value (Daglb): 0.004
spectral counts, test compound (Elane): 120 (inactive)
P value (Elane; [7]): 0.837
spectral counts, test compound (Pnpla7): 34.3 (inactive)
P value (Pnpla7; [7]): 0.536
spectral counts, test compound (Fasn): 178 (inactive)
P value (Fasn; [7]): 0.517
P value (Abhd10): 0.961
spectral counts, test compound (Acot1): 48.3 (inactive)
P value (Acot1; [7]): 0.802
spectral counts, test compound (Kiaa1363): 206 (inactive)
P value (Kiaa1363; [7]): 0.156
spectral counts, test compound (Pnpla6): 11.3 (inactive)
P value (Pnpla6; [7]): 0.696
spectral counts, test compound (Magl): 5.67 (inactive)
P value (Magl; [7]): 0.368
P value (Abhd6): 0.033
P value (Pla2g7): 0.996
spectral counts, test compound [3]: 0
spectral counts, test compound (Abhd12): 64.7 (inactive)
P value (Abhd12; [7]): 0.512
spectral counts, test compound (Pla2g15): 15 (inactive)
P value (Pla2g15; [7]): 0.135
spectral counts, test compound (Ctsg): 283 (inactive)
P value (Ctsg; [7]): 0.854
spectral counts, test compound (Prcp): 133 (inactive)
P value (Prcp; [7]): 0.736
spectral counts, test compound (Aoah): 35.7 (inactive)
P value (Aoah; [7]): 0.389
spectral counts, test compound (Ctsa): 57.7 (inactive)
P value (Ctsa; [7]): 0.562
spectral counts, test compound (Dpp7): 61.7 (inactive)
P value (Dpp7; [7]): 0.138
spectral counts, test compound (Dpp9): 134 (inactive)
P value (Dpp9; [7]): 0.213
spectral counts, test compound (Apeh): 252 (inactive)
P value (Apeh; [7]): 0.731
spectral counts, test compound (Fam108b): 24 (inactive)
P value (Fam108b; [7]): 0.757
spectral counts, test compound (Acot2): 85 (inactive)
P value (Acot2; [7]): 0.094
P value (Pafah2): 0.491
spectral counts, test compound [4]: 84 (inactive)
spectral counts, test compound (Lipe): 76 (inactive)
P value (Lipe; [7]): 0.299
spectral counts, test compound (Lpl): 20.3 (inactive)
P value (Lpl; [7]): 0.81
spectral counts, test compound (Abhd11): 23 (inactive)
P value (Abhd11; [7]): 0.167
spectral counts, test compound (Iah1): 22.3 (inactive)
P value (Iah1; [7]): 0.127
spectral counts, test compound [5]: 0
spectral counts, test compound [6]: 97.3 (inactive)
spectral counts, test compound (Dpp8): 31.3 (inactive)
P value (Dpp8; [7]): 0.949
spectral counts, test compound (Pnpla8): 3.67 (inactive)
P value (Pnpla8; [7]): 0.35
Compound: COc1ccccc1-c1ccc(-c2cn(C(=O)N3CCCCC3Cc3ccccc3)nn2)cc1 (stereo not given)
